Assay results taken from the NIST ThermoML archive (doi:10.1021/je5007407).
Several values for one entry are separate records, joined by “and”; a condition that tells them apart may be missing. Identical values can stand only once.

Experiment: xn = mol fraction of the nth substance listed
Conditions: Gas, Frequency=2 MHz, Pulse-echo method

CCC [propane] + O=C=O
Conditions	speed of sound
298.18 K, 100010 kPa, x2 = 0.9376	1076.7 m/s
298.18 K, 125020 kPa, x2 = 0.9376	1162.3 m/s
298.18 K, 149960 kPa, x2 = 0.9376	1236.7 m/s
298.18 K, 175000 kPa, x2 = 0.9376	1302.7 m/s
298.18 K, 200100 kPa, x2 = 0.9376	1364.5 m/s
323.09 K, 24930 kPa, x2 = 0.9683	534.6 m/s
323.09 K, 24940 kPa, x2 = 0.9683	534.8 m/s
323.09 K, 50140 kPa, x2 = 0.9683	752.6 m/s
323.09 K, 75000 kPa, x2 = 0.9683	890.2 m/s
323.09 K, 75070 kPa, x2 = 0.9683	897.6 m/s
323.09 K, 100590 kPa, x2 = 0.9683	1000.1 m/s
323.09 K, 125560 kPa, x2 = 0.9683	1088.7 m/s
323.09 K, 149970 kPa, x2 = 0.9683	1164.3 m/s
323.09 K, 175330 kPa, x2 = 0.9683	1234.8 m/s
323.09 K, 200000 kPa, x2 = 0.9683	1296.5 m/s
323.1 K, 30220 kPa, x2 = 0.9907	590.1 m/s
323.1 K, 30230 kPa, x2 = 0.9907	589.8 m/s
323.1 K, 49980 kPa, x2 = 0.9907	747 m/s
323.1 K, 75170 kPa, x2 = 0.9907	886.1 m/s
323.1 K, 100210 kPa, x2 = 0.9907	992.6 m/s
323.1 K, 124810 kPa, x2 = 0.9907	1080.5 m/s
323.1 K, 149980 kPa, x2 = 0.9907	1157.2 m/s
323.1 K, 174620 kPa, x2 = 0.9907	1224.1 m/s
323.1 K, 200340 kPa, x2 = 0.9907	1288.4 m/s
323.13 K, 50000 kPa, x2 = 0.9981	745.6 m/s
323.13 K, 50020 kPa, x2 = 0.9981	745.8 m/s
323.13 K, 75120 kPa, x2 = 0.9981	883.4 m/s
323.13 K, 100030 kPa, x2 = 0.9981	988.9 m/s
323.13 K, 124980 kPa, x2 = 0.9981	1076.8 m/s
323.13 K, 150000 kPa, x2 = 0.9981	1153.2 m/s
323.13 K, 175020 kPa, x2 = 0.9981	1220.9 m/s
323.13 K, 200000 kPa, x2 = 0.9981	1282.1 m/s
323.19 K, 15120 kPa, x2 = 0.9376	381.2 m/s
323.19 K, 15160 kPa, x2 = 0.9376	381.4 m/s
323.19 K, 25000 kPa, x2 = 0.9376	541.2 m/s
323.19 K, 50090 kPa, x2 = 0.9376	758.5 m/s
323.19 K, 75070 kPa, x2 = 0.9376	897.6 m/s
323.19 K, 100040 kPa, x2 = 0.9376	1005.2 m/s
323.19 K, 125050 kPa, x2 = 0.9376	1095.7 m/s
323.19 K, 150020 kPa, x2 = 0.9376	1173.9 m/s
323.19 K, 175000 kPa, x2 = 0.9376	1243.4 m/s
323.19 K, 200420 kPa, x2 = 0.9376	1307.5 m/s
348.09 K, 30390 kPa, x2 = 0.9683	504.8 m/s
348.09 K, 30400 kPa, x2 = 0.9683	504.8 m/s
348.09 K, 49950 kPa, x2 = 0.9981	667.1 m/s and 667.2 m/s
348.09 K, 50030 kPa, x2 = 0.9683	675.2 m/s
348.09 K, 50360 kPa, x2 = 0.9907	672.7 m/s
348.09 K, 50370 kPa, x2 = 0.9907	672.7 m/s
348.09 K, 75020 kPa, x2 = 0.9981	813.6 m/s
348.09 K, 75080 kPa, x2 = 0.9907	816.9 m/s
348.09 K, 75220 kPa, x2 = 0.9683	823 m/s
348.09 K, 99980 kPa, x2 = 0.9981	924.6 m/s
348.09 K, 100580 kPa, x2 = 0.9907	931.1 m/s
348.09 K, 100600 kPa, x2 = 0.9683	937.3 m/s
348.09 K, 124980 kPa, x2 = 0.9981	1016.6 m/s
348.09 K, 125530 kPa, x2 = 0.9683	1029 m/s
348.09 K, 125700 kPa, x2 = 0.9907	1023.2 m/s
348.09 K, 149990 kPa, x2 = 0.9981	1095.6 m/s
348.09 K, 150440 kPa, x2 = 0.9683	1109.4 m/s
348.09 K, 150600 kPa, x2 = 0.9907	1101.4 m/s
348.09 K, 174720 kPa, x2 = 0.9683	1178.6 m/s
348.09 K, 175000 kPa, x2 = 0.9981	1165.6 m/s
348.09 K, 175290 kPa, x2 = 0.9907	1171.4 m/s
348.09 K, 200000 kPa, x2 = 0.9981	1228.6 m/s
348.09 K, 200040 kPa, x2 = 0.9683	1243.8 m/s
348.09 K, 200720 kPa, x2 = 0.9907	1236.7 m/s
348.18 K, 25040 kPa, x2 = 0.9376	446.6 m/s
348.18 K, 25050 kPa, x2 = 0.9376	446.8 m/s
348.18 K, 50050 kPa, x2 = 0.9376	682.3 m/s
348.18 K, 75100 kPa, x2 = 0.9376	830.6 m/s
348.18 K, 100100 kPa, x2 = 0.9376	943.7 m/s
348.18 K, 125020 kPa, x2 = 0.9376	1037.1 m/s
348.18 K, 149940 kPa, x2 = 0.9376	1117.7 m/s
348.18 K, 174970 kPa, x2 = 0.9376	1189.8 m/s
348.18 K, 200000 kPa, x2 = 0.9376	1254.3 m/s
373.1 K, 74950 kPa, x2 = 0.9981	754.4 m/s
373.1 K, 74970 kPa, x2 = 0.9981	754.7 m/s
373.1 K, 100020 kPa, x2 = 0.9981	869.7 m/s
373.1 K, 125030 kPa, x2 = 0.9981	963.9 m/s
373.1 K, 150000 kPa, x2 = 0.9981	1044.4 m/s
373.1 K, 175000 kPa, x2 = 0.9981	1115.5 m/s
373.1 K, 200000 kPa, x2 = 0.9981	1179.3 m/s
373.12 K, 25050 kPa, x2 = 0.9376	384.7 m/s
373.12 K, 25060 kPa, x2 = 0.9376	385 m/s
373.12 K, 35140 kPa, x2 = 0.9683	488.3 m/s
373.12 K, 35170 kPa, x2 = 0.9683	488.8 m/s
373.12 K, 49890 kPa, x2 = 0.9376	618.8 m/s
373.12 K, 49950 kPa, x2 = 0.9683	611.6 m/s
373.12 K, 75070 kPa, x2 = 0.9683	764.5 m/s
373.12 K, 75090 kPa, x2 = 0.9376	772.6 m/s
373.12 K, 100000 kPa, x2 = 0.9376	889.4 m/s
373.12 K, 100300 kPa, x2 = 0.9683	881.3 m/s
373.12 K, 124970 kPa, x2 = 0.9376	985.6 m/s
373.12 K, 125160 kPa, x2 = 0.9683	976.5 m/s
373.12 K, 149930 kPa, x2 = 0.9376	1069 m/s
373.12 K, 150000 kPa, x2 = 0.9683	1057.9 m/s
373.12 K, 174970 kPa, x2 = 0.9376	1141.6 m/s
373.12 K, 175220 kPa, x2 = 0.9683	1131.5 m/s
373.12 K, 200010 kPa, x2 = 0.9683	1196.4 m/s
373.12 K, 200030 kPa, x2 = 0.9376	1208.7 m/s
373.13 K, 50050 kPa, x2 = 0.9907	607.3 m/s
373.13 K, 50070 kPa, x2 = 0.9907	607.5 m/s
373.13 K, 76000 kPa, x2 = 0.9907	763.8 m/s
373.13 K, 100270 kPa, x2 = 0.9907	874.4 m/s
373.13 K, 125410 kPa, x2 = 0.9907	970.3 m/s
373.13 K, 150430 kPa, x2 = 0.9907	1051.5 m/s
373.13 K, 174660 kPa, x2 = 0.9907	1121.2 m/s
373.13 K, 200020 kPa, x2 = 0.9907	1188.3 m/s
